Source: patent publication US10905761B2, “Use of a lipopeptide or lipoprotein as an adjuvant in therapeutic or prophylactic vaccinations” (HELMHOLTZ-ZENTRUM FUER INFEKTIONSFORSCHUNG GMBH, priority 2002, dated 2021)

Tests used:
Format in all cases: in vivo
BALB/c (H-2d) mice [1] = tested on: BALB/c (H-2d) mice
BALB/c (H-2d) mice [2] = test: Kinetics of β-gal-specific IgG responses in sera of mice immunized i.n. or i.p. (Example 4); conditions: pure β-galactosidase 50 μg/dose i.n.; after a second boost
Method: Groups of animals (n=5) were immunized either i.n. (A) or i.p. (B) with 50 μg of β-gal ( ), β-gal plus 10 μg of CTB ( ), β-gal plus 0.5 μg of MALP-2 ( ) or pure buffer solution ( ). The days of the immunizations (day 0, 14 and 21) are marked by arrows. The results are shown as the reciprocal log2 of the geometric endpoint titer, and the SEM […] is indicated by means of vertical lines.
Six- to eight-week old female BALB/c (H-2d) mice were purchased from Harlan Winkelmann GmbH (Borchen, Germany) and treated in accordance with local and EU directives. Groups each of 5 mice were immunized on day 1, 14 and 21 either with 40 μg of pure β-galactosidase (Boehringer, Mannheim, Germany) with admixture of 0.5 μg of synthetic MALP-2 or 10 μg of cholera toxin B subunit (CTB; ICN Biomedicals Inc., Ohio) as standard adjuvant. For intranasal administration (i.n.), 10 μl were administered into each nostril, while for the i.p. injection β-galactosidase was resuspended with or without MALP-2 in 400, 100 or 100 μl of PBS. Serum samples were taken at various times (day 0, 13, 20 and 30) and stored at −20° C. until the β-galactosidase-specific antibodies were determined. Nunc-Immuno MaxiSorp assay plates with 96 wells (Nunc, Roskilde, Denmark) were coated with 100 μl of β-gal (Boehringer, Mannheim, Germany) with 5 μg/ml in 0.05 M […] (pH 8.2) per well. Serial two-fold dilutions of the sera or lavages in PBS with 1% BSA and 0.05% Tween-20 were added (100 μl/well) and the plates were incubated at 37° C. for 24 hours. After rinsing, biotinylated γ chain-specific goat anti-mouse IgG (Sigma Chemie, Deisenhofen, Germany) was added, and the plates were incubated at 37° C. for a further hour. After rinsing four times, 100 μl of peroxidase-conjugated streptavidin (Pharmingen) were added to the […], and the plates were incubated at 37° C. for 30 minutes. After rinsing four times, the reactions were developed by means of ABTS in 0.1 M citrate-phosphate buffer (pH 4.35) which contained 0.01% H2O2.

BALB/c (H-2d) mice [3] = test: β-Galactosidase-specific IgA in lung and vaginal lavages of mice immunized i.n. (Example 5); conditions: i.n. immunization; day 31
Method: The results are shown as percentage of β-galactosidase-specific IgA in relation to the total IgA present. The SEM is indicated by vertical lines.
The mice were sacrificed on day 31, and the final samples were taken. Vaginal and lung lavages were obtained by rinsing the organs with 1 ml of PBS supplemented by 50 mM EDTA, 0.1% BSA and 10 mM PMSF. The lavages were then centrifuged in order to remove tissue detritus (10 min at 3000×g) and the remaining liquid was stored at −20° C. In order to determine the total IgA concentration in the rinsings from lung and vagina, serial dilutions of the corresponding samples were incubated in microtiter plates, these plates having previously been coated with goat anti-mouse IgA (Sigma Chemie) as capture antibody (100 μl/well). Serial dilutions of purified mouse IgA (Sigma Chemie) were used to produce a standard plot.

BALB/c (H-2d) mice [4] = test: β-Galactosidase-specific T-cell proliferation of spleen and regional lymph node cells of immunized mice (Example 7); conditions: day 31
Method: The cells were restimulated in vitro with various concentrations of soluble β-galactosidase for four days. The results are shown as average cpm subtracted from the background values for unstimulated cells from groups of three. The SEM is depicted by vertical lines.
Lymph nodes located below the lower jaw and the spleens were removed and put together for the analysis of the cellular immune responses. The cells were grown in RPMI 1640 supplemented by 10% fetal calf serum, 10 U/ml penicillin, 50 μg/ml streptomycin, 5×10^−5 M 2-mercaptoethanol and 1 mM L-glutamine (GIBCO BRL, Karlsruhe, Germany) and stored at 37° C. in a moist atmosphere with 5% CO2. The suspensions of lymph node and spleen cells were adjusted to 5×10^6 cells/ml in complete medium and put in a flat-bottomed 96-well microtiter plate (Nunc) with 100 μl/well, and the plates were incubated in the presence of various concentrations of soluble β-galactosidase for 4 days. Each concentration was tested in groups of three. During the last 18 hours of the incubation, 1 ρCi of [^3H]thymidine (Amersham International, Freiburg, Germany) was added to each well. The cells were then harvested on filter paper (Filtermat A; Wallac, Freiburg, Germany) using a cell harvester (Inotech, Wohlen, Switzerland), and the amount of incorporated [^3H]thymidine in the DNA of the proliferated cells was determined with the aid of a […] (Wallac 1450, Micro-Trilux). The results have been shown as the arithmetic mean of the uptake of [^3H]thymidine in cpm.

BALB/c (H-2d) mice [5] = test: β-Galactosidase-specific IgG isotypes in the serum of immunized mice (ELISA, Example 8); conditions: average ± SEM, 5 mice per group
[6] = mice immunized i.p. with pure β-galactosidase

Row | Substance | IL-10 content in supernatants of spleen cells stimulated in vitro (BALB/c (H-2d) mice [1]; mice immunized i.n., β-gal restimulation) [ng/mL] | β-galactosidase-specific antibody endpoint titer in serum (BALB/c (H-2d) mice [2]) | β-galactosidase-specific IgA in lung rinsings (BALB/c (H-2d) mice [3]) | proliferation of lymph node and spleen cells after in vitro restimulation with β-galactosidase (BALB/c (H-2d) mice [4]; i.n. immunization) | proliferation of spleen cells after in vitro restimulation with β-galactosidase (BALB/c (H-2d) mice [4]; i.p. immunization) | β-Galactosidase-specific IgG1 in serum (BALB/c (H-2d) mice [5]; i.n.) [µg/mL] | β-Galactosidase-specific IgG2a in serum (BALB/c (H-2d) mice [5]; i.n.) [µg/mL] | β-Galactosidase-specific IgG2b in serum (BALB/c (H-2d) mice [5]; i.n.) [µg/mL] | β-Galactosidase-specific IgG3 in serum (BALB/c (H-2d) mice [5]; i.n.) [µg/mL] | β-Galactosidase-specific IgG1 in serum (BALB/c (H-2d) mice [5]; i.p.) [µg/mL] | β-Galactosidase-specific IgG2a in serum (BALB/c (H-2d) mice [5]; i.p.) [µg/mL] | β-Galactosidase-specific IgG2b in serum (BALB/c (H-2d) mice [5]; i.p.) [µg/mL] | β-Galactosidase-specific IgG3 in serum (BALB/c (H-2d) mice [5]; i.p.) [µg/mL] | Th1 cytokines IL-2 and IFN-γ secreted by restimulated cells (BALB/c (H-2d) mice [1]; [6]) | secretion of IL-10 and IL-4 by restimulated cells (BALB/c (H-2d) mice [1]; [6])
1 | CTB [reference compound] | 0.6 |  |  |  |  |  |  |  |  |  |  |  |  |  | 
2 | β-gal: model antigen β-galactosidase administered pure, without adjuvant |  | about 1000 | no production of β-galactosidase-specific IgA in detectable quantity | no detectable cell proliferation | significant proliferation response | 22.6 ± 21.3 | 0.7 ± 0.5 | 0.3 ± 0.1 | 0.6 ± 0.0 | 191.5 ± 132.1 | 0.1 ± 0.0 | 0.5 ± 0.1 | 0.6 ± 0.0 | below the limit of detection | stimulated
